Laboratory results published in patent publication US12077503B2, “Substituted cyclic amides and their use as herbicides” (FMC CORPORATION, priority 2015, dated 2024).

Legend:
Format in all cases: in vivo
[1] = tested on: ryegrass, Italian (Italian ryegrass, Lolium multiflorum); experiment: Test A preemergence
Excerpt: (§1) Seeds of plant species selected from barnyardgrass (Echinochloa crus-galli), Kochia (Kochia scoparia), ragweed (common ragweed, Ambrosia elatior), ryegrass, Italian (Italian ryegrass, Lolium multiflorum), crabgrass, large (Digitaria sanguinalis), giant foxtail (Setaria faberii), green foxtail (Setaria viridis), morningglory (Ipomoea spp.), pigweed (Amaranthus retroflexus), velvetleaf (Abutilon theophrasti), wheat (Triticum aestivum), and corn (Zea mays) were planted into a blend of loam soil and sand and treated preemergence with a directed soil spray using test chemicals formulated in anon-phytotoxic solvent mixture which included a surfactant.
(§2) At the same time, plants selected from these crop and weed species and also blackgrass (Alopecurus myosuroides), and Galium (catchweed bedstraw, Galium aparine) were planted in pots containing the same blend of loam soil and sand and treated with postemergence applications of test chemicals formulated in the same manner. Plants ranged in height from 2 to 10 cm and were in the one- to two-leaf stage for the postemergence treatment. Treated plants and untreated controls were maintained in a greenhouse for approximately 10 d, after which time all treated plants were compared to untreated controls and visually evaluated for injury. Plant response ratings, summarized in Table A, are based on a 0 to 100 scale where 0 is no effect and 100 is complete control. A dash (-) response means no test result.

[2] = tested on: pigweed (Amaranthus retroflexus); experiment: Test A preemergence
Excerpt: as §1, §2

[3] = tested on: ragweed (common ragweed, Ambrosia elatior); experiment: Test A preemergence
Excerpt: as §1, §2

[4] = tested on: barnyardgrass (Echinochloa crus-galli); experiment: Test A preemergence
Excerpt: as §1, §2

[5] = tested on: giant foxtail (Setaria faberii); experiment: Test A preemergence
Excerpt: as §1, §2

Kochia (Kochia scoparia) [6] = experiment: Test A preemergence
Excerpt: as §1, §2

rice (Oryra sativa) = experiment: Test B flooded paddy test; details: Flood, 250 g ai/ha; 0 to 100 scale where 0 is no effect and 100 is complete control; 13 to 15 d
Procedure: (§3) Plant species in the flooded paddy test selected from rice (Oryra sativa), sedge, umbrella (small-flower umbrella sedge, Cyperus difformis), ducksalad (Heteranthera limosa), and barnyardgrass (Echinochloa crus-galli) were grown to the 2-leaf stage for testing. At time of treatment, test pots were flooded to 3 cm above the soil surface, treated by application of test compounds directly to the paddy water, and then maintained at that water depth for the duration of the test. Treated plants and controls were maintained in a greenhouse for 13 to 15 d, after which time all species were compared to controls and visually evaluated. Plant response ratings, summarized in Table B, are based on a scale of 0 to 100 where 0 is no effect and 100 is complete control. A dash (-) response means no test result.

[7] = tested on: sedge, umbrella (small-flower umbrella sedge, Cyperus difformis); experiment: Test B flooded paddy test; details: Flood, 250 g ai/ha; 0 to 100 scale where 0 is no effect and 100 is complete control; 13 to 15 d
Procedure: as §3

[8] = tested on: ducksalad (Heteranthera limosa); experiment: Test B flooded paddy test; details: Flood, 250 g ai/ha; 0 to 100 scale where 0 is no effect and 100 is complete control; 13 to 15 d
Procedure: as §3

[9] = tested on: barnyardgrass (Echinochloa crus-galli); experiment: Test B flooded paddy test; details: Flood, 250 g ai/ha; 0 to 100 scale where 0 is no effect and 100 is complete control; 13 to 15 d
Procedure: as §3

[10] = tested on: wheat (Triticum aestivum); experiment: Test A postemergence
Excerpt: as §1, §2

[11] = tested on: ryegrass, Italian (Italian ryegrass, Lolium multiflorum); experiment: Test A postemergence
Excerpt: as §1, §2

[12] = tested on: blackgrass (Alopecurus myosuroides); experiment: Test A postemergence
Excerpt: as §1, §2

[13] = tested on: pigweed (Amaranthus retroflexus); experiment: Test A postemergence
Excerpt: as §1, §2

[14] = tested on: Galium (catchweed bedstraw, Galium aparine); experiment: Test A postemergence
Excerpt: as §1, §2

[15] = tested on: ragweed (common ragweed, Ambrosia elatior); experiment: Test A postemergence
Excerpt: as §1, §2

corn (Zea mays) [16] = experiment: Test A postemergence
Excerpt: as §1, §2

[17] = tested on: barnyardgrass (Echinochloa crus-galli); experiment: Test A postemergence
Excerpt: as §1, §2

[18] = tested on: giant foxtail (Setaria faberii); experiment: Test A postemergence
Excerpt: as §1, §2

Kochia (Kochia scoparia) [19] = experiment: Test A postemergence
Excerpt: as §1, §2

[20] = tested on: redroot pigweed (Amaranthus retroflexus); experiment: Test G Pre-Emergence Protocol; details: evaluated after 13 days
Procedure: (§4) Seeds of corn (Zea mays), giant foxtail (Setaria faberi), barnyardgrass (Echinochloa crus-galli), ivy-leaved morning glory (Ipomoea hederacea), redroot pigweed (Amaranthus retroflexus) and velvetleaf (Abutilon theophrasti) were sown in standard soil in pots. After cultivation for one day under controlled conditions in a glasshouse (at 24/16° C., day/night; 14 hours light; 65% humidity), the plants were sprayed with an aqueous spray solution derived from the formulation of the technical active ingredient in acetone/water (50:50) solution containing 0.5% Tween 20 (polyoxyethylene sorbitan monolaurate, CAS RN 9005-64-5) to give a final dose of 15.625, 62.5 or 250 g/ha of test compound.
(§5) The test plants were then grown on under controlled conditions in a glasshouse (at 24/16° C., day/night; 14 hours light; 65% humidity) and watered twice daily. After 13 days the test was evaluated (100=total damage to plant; 0=no damage to plant). A dash (-) means no test result.

corn (Zea mays) [21] = experiment: Test G Pre-Emergence Protocol; details: evaluated after 13 days
Procedure: as §4, §5

[22] = tested on: barnyardgrass (Echinochloa crus-galli); experiment: Test G Pre-Emergence Protocol; details: evaluated after 13 days
Procedure: as §4, §5

[23] = tested on: giant foxtail (Setaria faberi); experiment: Test G Pre-Emergence Protocol; details: evaluated after 13 days
Procedure: as §4, §5

[24] = tested on: velvetleaf (Abutilon theophrasti); experiment: Test G Pre-Emergence Protocol; details: evaluated after 13 days
Procedure: as §4, §5

[25] = tested on: ivy-leaved morning glory (Ipomoea hederacea); experiment: Test G Pre-Emergence Protocol; details: evaluated after 13 days
Procedure: as §4, §5

[26] = tested on: redroot pigweed (Amaranthus retroflexus); experiment: Test G Post-Emergence Protocol
Procedure: as §4, with “8 days” for “one day”
as §5

corn (Zea mays) [27] = experiment: Test G Post-Emergence Protocol
Procedure: as §4, with “8 days” for “one day”
as §5

[28] = tested on: barnyardgrass (Echinochloa crus-galli); experiment: Test G Post-Emergence Protocol
Procedure: as §4, with “8 days” for “one day”
as §5

[29] = tested on: giant foxtail (Setaria faberi); experiment: Test G Post-Emergence Protocol
Procedure: as §4, with “8 days” for “one day”
as §5

[30] = tested on: velvetleaf (Abutilon theophrasti); experiment: Test G Post-Emergence Protocol
Procedure: as §4, with “8 days” for “one day”
as §5

[31] = tested on: ivy-leaved morning glory (Ipomoea hederacea); experiment: Test G Post-Emergence Protocol
Procedure: as §4, with “8 days” for “one day”
as §5

[32] = 125 g ai/ha, preemergence, 0 to 100 scale (0 no effect, 100 complete control)
[33] = Preemergence, 500 g ai/ha, 0 is no effect, 100 is complete control
[34] = 500 g ai/ha, postemergence, 0 to 100 scale, 0 no effect, 100 complete control
[35] = Postemergence, 125 g ai/ha, visual injury, 0 to 100 scale (0 no effect, 100 complete control), approx. 10 d
[36] = 62.5 g ai/ha, 100=total damage to plant, 0=no damage to plant
[37] = 15.625 g ai/ha, evaluated after 13 days (100=total damage to plant; 0=no damage to plant)
[38] = 62.5 g ai/ha, evaluated after 13 days, 100=total damage to plant, 0=no damage to plant
[39] = 250 g ai/ha, evaluated after 13 days, 100=total damage to plant, 0=no damage to plant

O=C1NCC(c2ccccc2-c2ccccc2)C1C(=O)Nc1ccccc1F (racemic) [Compound 381]
Plant response rating, Ryegrass, Italian [1, 32]: 0
Ryegrass, Italian plant response rating (0 to 100 scale) [1, 33]: 0
Plant response rating, Pigweed [2, 32]: 0
Pigweed plant response rating (0 to 100 scale) [2, 33]: 0
Plant response rating, Ragweed [3, 32]: 0
Ragweed plant response rating (0 to 100 scale) [3, 33]: 0
Plant response rating, Barnyardgrass [4, 32]: 0
Barnyardgrass plant response rating (0 to 100 scale) [4, 33]: 20
Plant response rating, Foxtail, Giant [5, 32]: 0
Foxtail, Giant plant response rating (0 to 100 scale) [5, 33]: 30
Plant response rating, Kochia (Kochia (Kochia scoparia) [6]; [32]): 0
Kochia plant response rating (0 to 100 scale) (Kochia (Kochia scoparia) [6]; [33]): 0
Plant response rating, Rice (rice (Oryra sativa)): 0
Plant response rating, Sedge, Umbrella [7]: 0
Plant response rating, Ducksalad [8]: 0
Plant response rating, Barnyardgrass [9]: 0
Plant response rating, Wheat [10, 34]: 0
Plant response rating, Wheat [10, 35]: 0
Plant response rating, Ryegrass, Italian [11, 34]: 0
Plant response rating, Ryegrass, Italian [11, 35]: 0
Plant response rating, Blackgrass [12, 34]: 0
Plant response rating, Blackgrass [12, 35]: 0
Plant response rating, Pigweed [13, 34]: 0
Plant response rating, Pigweed [13, 35]: 0
Plant response rating, Galium [14, 34]: 0
Plant response rating, Galium [14, 35]: 0
Plant response rating, Ragweed [15, 34]: 0
Plant response rating, Ragweed [15, 35]: 0
Plant response rating, Corn (corn (Zea mays) [16]; [34]): 0
Plant response rating, Corn (corn (Zea mays) [16]; [35]): 0
Plant response rating, Barnyardgrass [17, 34]: 30
Plant response rating, Barnyardgrass [17, 35]: 0
Plant response rating, Foxtail, Giant [18, 34]: 20
Plant response rating, Foxtail, Giant [18, 35]: 0
Plant response rating, Kochia (Kochia (Kochia scoparia) [19]; [34]): 0
Plant response rating, Kochia (Kochia (Kochia scoparia) [19]; [35]): 0

CN1C[C@H](c2cccc(C(F)(F)F)c2)[C@@H](C(=O)Nc2cccc(F)n2)C1=O [Compound 1816]
Pigweed, Redroot damage rating (100=total damage to plant; 0=no damage to plant) ([20]; 15.625 g ai/ha): 0
Pigweed, Redroot damage rating [20, 36]: 40
Pigweed, Redroot damage rating (100=total damage to plant; 0=no damage to plant) ([20]; 250 g ai/ha): 80
Corn damage rating (100=total damage to plant; 0=no damage to plant) (corn (Zea mays) [21]; 15.625 g ai/ha): 70
Corn damage rating (corn (Zea mays) [21]; [36]): 80
Corn damage rating (100=total damage to plant; 0=no damage to plant) (corn (Zea mays) [21]; 250 g ai/ha): 80
Barnyardgrass damage rating (100=total damage to plant; 0=no damage to plant) ([22]; 15.625 g ai/ha): 90
Barnyardgrass damage rating [22, 36]: 90
Barnyardgrass damage rating (100=total damage to plant; 0=no damage to plant) ([22]; 250 g ai/ha): 90
Foxtail, Giant damage rating (100=total damage to plant; 0=no damage to plant) ([23]; 15.625 g ai/ha): 90
Foxtail, Giant damage rating [23, 36]: 90
Foxtail, Giant damage rating (100=total damage to plant; 0=no damage to plant) ([23]; 250 g ai/ha): 90
Velvetleaf damage rating (100=total damage to plant; 0=no damage to plant) ([24]; 15.625 g ai/ha): 0
Velvetleaf damage rating [24, 36]: 20
Velvetleaf damage rating (100=total damage to plant; 0=no damage to plant) ([24]; 250 g ai/ha): 60
Morningglory, Ivy-leaved damage rating (100=total damage to plant; 0=no damage to plant) ([25]; 15.625 g ai/ha): 20
Morningglory, Ivy-leaved damage rating [25, 36]: 60
Morningglory, Ivy-leaved damage rating (100=total damage to plant; 0=no damage to plant) ([25]; 250 g ai/ha): 80
Pigweed, Redroot damage rating [26, 37]: 10
Pigweed, Redroot damage rating [26, 38]: 40
Pigweed, Redroot damage rating [26, 39]: 70
Corn damage rating (corn (Zea mays) [27]; [37]): 70
Corn damage rating (corn (Zea mays) [27]; [38]): 80
Corn damage rating (corn (Zea mays) [27]; [39]): 80
Barnyardgrass damage rating [28, 37]: 80
Barnyardgrass damage rating [28, 38]: 80
Barnyardgrass damage rating [28, 39]: 80
Foxtail, Giant damage rating [29, 37]: 80
Foxtail, Giant damage rating [29, 38]: 80
Foxtail, Giant damage rating [29, 39]: 80
Velvetleaf damage rating [30, 37]: 0
Velvetleaf damage rating [30, 38]: 30
Velvetleaf damage rating [30, 39]: 30
Morningglory, Ivy-leaved damage rating [31, 37]: 10
Morningglory, Ivy-leaved damage rating [31, 38]: 60
Morningglory, Ivy-leaved damage rating [31, 39]: 70
